# Biological target: Trypsin
# Experiment: Inhibitory concentration against trypsin was determined
smiles,measurement,value
NS(=O)(=O)c1ccccc1-c1ccc(C(=O)Nc2ccccc2C(=O)Nc2ccc(Br)cn2)cc1 [2'-Sulfamoyl-biphenyl-4-carboxylic acid [2-(5-bromo-pyridin-2-ylcarbamoyl)-phenyl]-amide],IC50,> 10 µM

# — BindingDB's records for doi:10.1016/j.bmcl.2003.11.079 (Millennium Pharmaceuticals, 2004)
